Here are results for 37 molecules from ChEMBL document CHEMBL1857833, “Screening and optimization of specific chemical series against human African Trypanosomiasis (HAT)”.

In brackets after ≈: the same amount, converted by molar mass. Where only a bound is given, the exact number is not on record here.

A short description of data set [1]: DNDI: Cytotoxicity against L929 mouse fibroblasts, 72 hour. Type of data set: toxicity, cell-based. To be noted: mouse, L929 mouse fibroblasts.
For a further data set, the system named is Trypanosoma brucei. In words: DNDI: Inhibition of Human African Trypanosomiasis, SBRI 427, in vitro. Type of data set: functional, organism-based. Particulars: Trypanosoma brucei, SBRI 427; read-out: IC50.

By IC50 is commonly meant the concentration at which inhibition is half-maximal.

In turn, `Fc1ccc(-c2cc3nc(-c4ccccc4)cc(NCCCN4CCCC4)n3n2)cc1` registered an IC50 at 72 h in data set [1] of 6.92 µg/mL (≈ 16.7 µM). Moreover, the 50% inhibitory concentration (IC50) in the data set with Trypanosoma brucei came to 3.65 µg/mL (≈ 8.78 µM).
In the same order, the values of `Fc1ccc(-c2cc3nc(-c4ccccc4)cc(NCCN4CCOCC4)n3n2)cc1` are > 10 µg/mL and > 5 µg/mL.
The matching figures for `CC(C)CC(NCc1ccc(Cl)c(Cl)c1)c1nc(-c2ccccc2)c(N2CCOCC2)o1` (centres undefined): > 10 µg/mL and 4.46 µg/mL (≈ 9.4 µM).
On to `COc1cccc(-c2nc(CNCCC3CCCN3C)c(C)o2)c1` (centres undefined), for which the IC50 at 72 h in data set [1] was > 10 µg/mL. Moreover, in the data set on Trypanosoma brucei, the IC50 came out at 2.2 µg/mL (≈ 6.68 µM).
With `CCCCc1ccc(-c2nc(CNC3CCN(Cc4ccccc4)CC3)co2)cc1`, inhibition in data set [1] was half-maximal at 0.96 µg/mL (≈ 2.38 µM) (IC50 at 72 h). Further, the 50% inhibitory concentration (IC50) in the data set on Trypanosoma brucei is 0.16 µg/mL (≈ 0.396 µM).
`Fc1ccc(-c2cc3nc(-c4ccccc4)cc(NCCN4CCCC4)n3n2)cc1` displayed an IC50 at 72 h in data set [1] of 4.94 µg/mL (≈ 12.3 µM). Also, in the data set with Trypanosoma brucei, the concentration for half-maximal inhibition (IC50) came to 1.68 µg/mL (≈ 4.18 µM).
The matching figures for `CCCCCC(C)NCc1nc(-c2ccc(C)cc2)oc1C` (centres undefined): > 10 µg/mL and 1.41 µg/mL (≈ 4.69 µM).
In the same order, the values of `CCCCCC(C)NCc1nc(-c2ccc(OC)cc2)oc1C` (centres undefined) are > 10 µg/mL and 1.49 µg/mL (≈ 4.71 µM).
`CCCCCC(C)NCc1coc(-c2ccc(OCc3ccc(Cl)c(Cl)c3)cc2)n1` (centres undefined) showed a half-maximal inhibitory concentration (IC50) at 72 h in data set [1] of 1.9 µg/mL (≈ 4.25 µM). The IC50 in the data set with Trypanosoma brucei is 0.41 µg/mL (≈ 0.916 µM).
The matching figures for `CCOCCCNC(CC(C)C)c1nc(-c2ccccc2)c(N2CCOCC2)o1` (centres undefined): > 10 µg/mL and > 5 µg/mL.
In the same order, the values of `Nc1oc(-c2ccccc2)nc1C(=O)c1ccc(-c2ccccc2)cc1` are 5.23 µg/mL (≈ 15.4 µM) and > 5 µg/mL.
In the same order, the values of `CCCCc1ccc(-c2nc(CNCCCNC(=O)OC(C)(C)C)co2)cc1` are 1.47 µg/mL (≈ 3.79 µM) and 0.74 µg/mL (≈ 1.91 µM).
The molecule `CCCCCC(C)NCc1coc(-c2ccc(OCCCC)c(C)c2)n1` (centres undefined) registered an IC50 at 72 h in data set [1] of 1.37 µg/mL (≈ 3.82 µM). Moreover, the IC50 in the data set on Trypanosoma brucei worked out at 0.42 µg/mL (≈ 1.17 µM).
With `COc1ccc(-c2nc(CNCCCN(C)C)c(C)o2)cc1`, the IC50 at 72 h in data set [1] was > 10 µg/mL. The IC50 in the data set with Trypanosoma brucei amounted to 3.13 µg/mL (≈ 10.3 µM).
Take `CCCCCC(C)NCc1coc(-c2ccc(Cl)cc2Cl)n1` (centres undefined): the IC50 at 72 h in data set [1] was 3.47 µg/mL (≈ 10.2 µM). Also, in the data set with Trypanosoma brucei, the IC50 is 0.9 µg/mL (≈ 2.64 µM).
With `CC(C)CC(NCc1ccc(C(F)(F)F)cc1)c1nc(-c2ccccc2)c(N2CCOCC2)o1` (centres undefined), the IC50 at 72 h in data set [1] was > 10 µg/mL. For the same molecule, the IC50 in the data set with Trypanosoma brucei amounted to 2.58 µg/mL (≈ 5.45 µM).
As for `Cc1oc(-c2ccccc2F)nc1CNCCC1CCCN1C` (centres undefined), the IC50 at 72 h in data set [1] was > 10 µg/mL. In addition, the IC50 with Trypanosoma brucei was > 5 µg/mL.
In the same order, the values of `CCCCc1ccc(-c2nc(CNCCCn3ccnc3)co2)cc1` are 0.66 µg/mL (≈ 1.95 µM) and 0.3 µg/mL (≈ 0.886 µM).
In the same order, the values of `CC(C)CC(NCCc1ccc(S(N)(=O)=O)cc1)c1nc(C(C)C)c(N2CCOCC2)o1` (centres undefined) are > 10 µg/mL and > 5 µg/mL.
For `COc1ccccc1C(=O)c1nc(-c2ccccc2)oc1N`, the IC50 at 72 h in data set [1] is > 10 µg/mL. In the data set on Trypanosoma brucei, the IC50 was > 5 µg/mL.
On to `CN(C)CC(C)(C)CNc1cc(-c2ccccc2)nc2cc(-c3ccc(F)cc3)nn12`, for which, in data set [1], the IC50 at 72 h is > 10 µg/mL. The IC50 in the data set on Trypanosoma brucei was > 5 µg/mL.
The matching figures for `CCCCCC(C)NCc1nc(-c2cccc(OC)c2)oc1C` (centres undefined): > 10 µg/mL and 1.54 µg/mL (≈ 4.87 µM).
On to `Cc1ccc(CNC(CC(C)C)c2nc(C(C)C)c(N3CCOCC3)o2)cc1` (centres undefined), for which the IC50 at 72 h in data set [1] was > 10 µg/mL. Moreover, the IC50 in the data set with Trypanosoma brucei was > 5 µg/mL.
On to `CCCCCC(C)NCc1nc(-c2cccc(C)c2)oc1C` (centres undefined), for which the IC50 at 72 h in data set [1] is > 10 µg/mL. For the same molecule, in the data set on Trypanosoma brucei, the IC50 was 2.16 µg/mL (≈ 7.19 µM).
As for `CCCCc1ccc(-c2nc(CN)co2)cc1`, in data set [1], the IC50 at 72 h was > 10 µg/mL. Further, the IC50 in the data set on Trypanosoma brucei is > 5 µg/mL.
Regarding `CN(C)CC(C)(C)CNc1cc(-c2ccccc2)nc2cc(-c3cccc(F)c3)nn12`, in data set [1], the IC50 at 72 h was > 10 µg/mL. The IC50 with Trypanosoma brucei was > 5 µg/mL.
In the same order, the values of `CN(C)CCCNCc1coc(-c2ccc(OCCc3ccccc3)cc2)n1` are > 10 µg/mL and > 5 µg/mL.
The matching figures for `CCCCCC(C)NCc1nc(-c2ccccc2F)oc1C` (centres undefined): 8.59 µg/mL (≈ 28.2 µM) and 2.71 µg/mL (≈ 8.9 µM).
With `CC(C)c1ccc(-c2nc(CNCCCN(C)C)co2)cc1`, the IC50 at 72 h in data set [1] is > 10 µg/mL. In addition, in the data set on Trypanosoma brucei, the IC50 is > 5 µg/mL.
The matching figures for `CCCCc1ccc(-c2nc(CNCCc3cnc[nH]3)co2)cc1`: 2.43 µg/mL (≈ 7.49 µM) and 0.37 µg/mL (≈ 1.14 µM).
In the same order, the values of `COc1ccc(-c2nc(CNCCC3CCCN3C)c(C)o2)cc1` (centres undefined) are > 10 µg/mL and 2.44 µg/mL (≈ 7.41 µM).
In the same order, the values of `CCCCCC(C)NCc1coc(-c2c(Cl)cccc2Cl)n1` (centres undefined) are 5.76 µg/mL (≈ 16.9 µM) and 2.04 µg/mL (≈ 5.98 µM).
`NCCCNc1cc(-c2ccccc2)nc2cc(-c3cccc(F)c3)nn12` had an IC50 at 72 h in data set [1] of 1.57 µg/mL (≈ 4.34 µM). For the same molecule, the IC50 in the data set on Trypanosoma brucei amounted to 0.535 µg/mL (≈ 1.48 µM).
In the same order, the values of `Fc1ccc(-c2cc3nc(-c4ccccc4)cc(NCCN4CCCCC4)n3n2)cc1` are > 10 µg/mL and > 5 µg/mL.
The matching figures for `C/C(O)=C1\C(=O)NC(CC(C)C)C1=O` (centres undefined): > 10 µg/mL and > 5 µg/mL.
For `C#[N+]C(C(=O)N1CCOCC1)c1ccccc1` (centres undefined), the IC50 at 72 h in data set [1] is > 10 µg/mL. Besides, the IC50 in the data set on Trypanosoma brucei is > 5 µg/mL.
With `C#[N+]C(C(=O)N1CCOCC1)C(C)C` (centres undefined), in data set [1], the IC50 at 72 h is > 10 µg/mL. Besides, the IC50 in the data set with Trypanosoma brucei is > 5 µg/mL.
